According to paper PMC6934184, “Selective DNA-PKcs inhibition extends the therapeutic index of localized radiotherapy and chemotherapy” (The Journal of Clinical Investigation, 2019):

Target: T1, AURKA (Aurora A) (Homo sapiens, UniProt O14965)
T1 construct: purchased Thermo Fisher Scientific (Life Technologies) SelectScreen
Assay: SelectScreen Z'LYTE
Assay type: biochemical
Procedure, shortened: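 NU5455 was profiled across the SelectScreen Broad panel of kinase activity and binding assays. Z'LYTE reactions such as CSF1R ran at apparent Km ATP, while the Adapta CAMK1 assay used ATP listed as 10. Values are given as percent.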

T1 sequence (O14965 whole entry): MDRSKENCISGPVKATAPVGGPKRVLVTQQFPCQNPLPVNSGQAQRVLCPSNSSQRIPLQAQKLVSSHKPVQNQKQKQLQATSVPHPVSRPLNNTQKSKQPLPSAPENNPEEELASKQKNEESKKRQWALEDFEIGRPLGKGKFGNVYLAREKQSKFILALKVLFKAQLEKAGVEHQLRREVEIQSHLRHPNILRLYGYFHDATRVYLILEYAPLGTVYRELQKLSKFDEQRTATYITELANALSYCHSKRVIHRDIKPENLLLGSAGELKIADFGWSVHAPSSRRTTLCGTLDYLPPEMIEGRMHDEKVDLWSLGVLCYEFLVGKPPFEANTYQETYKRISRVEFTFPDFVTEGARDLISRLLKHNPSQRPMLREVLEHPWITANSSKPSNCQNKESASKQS

Compound: CN(C(=O)CN1CCOCC1)c1ccc2sc3c(-c4cccc5c(=O)cc(N6CC7CCC(C6)O7)oc45)cccc3c2c1 [NU5455]
- inhibition at 1 µM: -0.1%
